Here are results for one molecule from patent US9156796B2, “Benzoimidazole-carboxylic acid amide derivatives as APJ receptor modulators” (SANOFI, priority 2013, dated 2015).

The target of this assay is T1, human apelin receptor (Homo sapiens, UniProt P35414).
T1 construct: expressed in transfected cells
T1 sequence (P35414 1-380): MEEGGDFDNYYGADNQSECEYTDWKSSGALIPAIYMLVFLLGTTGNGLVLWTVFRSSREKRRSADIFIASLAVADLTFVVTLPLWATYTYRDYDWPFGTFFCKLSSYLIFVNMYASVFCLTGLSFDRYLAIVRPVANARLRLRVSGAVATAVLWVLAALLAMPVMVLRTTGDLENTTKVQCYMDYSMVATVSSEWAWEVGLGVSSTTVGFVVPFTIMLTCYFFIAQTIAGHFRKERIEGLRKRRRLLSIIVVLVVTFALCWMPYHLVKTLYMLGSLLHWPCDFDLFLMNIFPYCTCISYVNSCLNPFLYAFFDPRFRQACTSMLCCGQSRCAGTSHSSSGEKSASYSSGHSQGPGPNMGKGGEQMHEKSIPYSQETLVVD
As to the kind of experiment: Determination of agonism on the human apelin receptor by a calcium fluorescence assay (FLIPR). Format: cell-based. Particulars: HEK293 cells stably transfected with human apelin receptor and Giaq protein, Fluo-4 calcium fluorescence, read-out: EC50 (APJ agonism). The procedure, abridged:
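HEK293 cells stably co-expressing human apelin receptor and promiscuous Giaq, loaded 1 h at 37 °C with Fluo-4 (4 μM) in probenecid-containing Hepes buffer, pH 7.4. Compounds, at least 7 concentrations in triplicate, added in FLIPR Tetra; peak calcium fluorescence normalized to 1 μM apelin-13 as 100% to derive EC50.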

Take `CCC(CC)n1c(Cc2cscn2)nc2cc(C(=O)N[C@@H](CC(C)C)C(N)=O)ccc21` [Example 172, 1-(1-Ethyl-propyl)-2-thiazol-4-ylmethyl-1H-benzoimidazole-5-carboxylic acid ((S)-1-carbamoyl-3-methyl-butyl)-amide]: the EC50 – broadly, the concentration needed to bring the measured effect to its halfway point – worked out at 4.89 µM.
